# Values quoted from earlier work as cited in patent US20250059333A1, “BILAYER BIONIC DRUG-LOADED HYDROGEL, AND PREPARATION AND APPLICATION THEREOF” (Chengdu Hengkui Biotechnology Co., Ltd., priority 2022, published 2025).
# Conditions: relative to glutaraldehyde, a commonly used chemical cross-linking agent
structure (smiles),measurement,value
COC(=O)C1=CO[C@@H](O)[C@@H]2C(CO)=CC[C@H]12 [genipin],toxicity lower than that of glutaraldehyde,10000 times
